Read-outs that look alike come from different tables or passages of the source.
Columns and labels:
[1] = Loading efficiency of cargo into polymersomes by fluorescence; assay type: physicochemical; conditions: FNP, single cargo, FIG. 4A
Protocol: The loading efficiency of the target molecule in the nanocarriers by the methods of the present invention is measured as the ratio of target molecule encapsulated within the nanocarrier to the total amount of target molecule available for loading in the initial solution. The loading efficiency is typically greater than about 40% for both proteins and hydrophobic molecules (i.e., […], about 40%, about 45%, about 50%, about 60%, about 70%, about 80%, about 85%, about 90%, or any percentages in between). In some embodiments of the invention, the loading efficiency is greater than at least 45%.
Nanocarriers were formed using the confined impingement jets (CIJ) mixer described by Han et al. PEG-bl-PPS copolymers and hydrophobic molecules to be loaded within polymersomes were dissolved in 500 μL of tetrahydrofuran (THF) and placed into a 1 mL plastic disposable syringe. […] For fluorescence measurements, samples were taken both before and after column purification to assess loading efficiency. […]
Fluorescence and absorbance measurements were taken on a SpectraMax M3 microplate reader (Molecular Devices). All readings were taken in black-walled clear bottom 96-well plates (Corning 07-200-567), at 100 μL volumes. All readings were normalized to a 100 μL 1×PBS blank control. […] NBT diformazan was detected via absorbance at 620 nm.

[2] = ZINC15 database, cited from earlier work

In the case of `O=C(O)CN(CC(=O)O)Cc1cc2c(cc1O)Oc1cc(O)c(CN(CC(=O)O)CC(=O)O)cc1C21OC(=O)c2ccccc21` [Calcein, calcein], the “loading efficiency into polymersomes” value [1] is given as “lowest loading efficiency”, the “logP Values” [2] is given as 1.608 and the “logP Values” ([2]; listed as calcein) is given as 1.6.

In the case of `CCOC(=O)c1ccccc1-c1c2cc(Br)c(=O)c(Br)c-2oc2c(Br)c([O-])c(Br)cc12.[K+]` [Ethyl Eosin, ethyl eosin], the “loading efficiency into polymersomes” value [1] is reported as “very high loading efficiencies”.

In the case of `CO[C@H]1C[C@@H]2CC[C@@H](C)[C@@](O)(O2)C(=O)C(=O)N2CCCC[C@H]2C(=O)O[C@H]([C@H](C)C[C@@H]2CC[C@@H](O)[C@H](OC)C2)CC(=O)[C@H](C)/C=C(\C)[C@@H](O)[C@@H](OC)C(=O)[C@H](C)C[C@H](C)/C=C/C=C/C=C/1C` [Rapamycin, rapamycin], the “logP Values” [2] is listed as 6.181.
